Test results taken from patent US11299467B2 (Antabio SAS, priority 2017, dated 2022).
Read-outs that look alike come from different tables or passages of the source.

What was measured:
NDM-1 = NDM-1 (Klebsiella pneumoniae, UniProt C7C422); assay: In vitro enzyme inhibition assay, purified NDM-1 (imipenem hydrolysis, UV 299 nm); assay type: biochemical
Description: (§1) Enzyme inhibition assays were performed using purified MBL enzymes (NDM-1; VIM-1; VIM-2; IMP-1) in 10 mM HEPES buffer pH 7.5 in 96-well microtiter plates. Imipenem (300 μM) was used as substrate and its hydrolysis was followed at UV 299 nm during 10 mn every 30 seconds using a Perkin Elmer Envision UV fluorescence plate reader.
(§2) Mean Ki values from multiple experiments are presented below.
(§3) Studies were undertaken to compare the compounds of the invention with structurally similar compounds (“Comp. x”). Experiments were conducted as described above.

VIM-1 = VIM-1 (Pseudomonas aeruginosa, UniProt A0A0F7KYQ8); assay: In vitro enzyme inhibition assay, purified VIM-1 (imipenem hydrolysis, UV 299 nm); assay type: biochemical
Description: as §1, §2, §3

VIM-2 = VIM-2 (Escherichia coli, UniProt Q5U7L7); assay: In vitro enzyme inhibition assay, purified VIM-2 (imipenem hydrolysis, UV 299 nm); assay type: biochemical
Description: as §1, §2, §3

IMP-1 = IMP-1 (Serratia marcescens, UniProt P52699); assay: In vitro enzyme inhibition assay, purified IMP-1 (imipenem hydrolysis, UV 299 nm); assay type: biochemical
Description: as §1, §2, §3

[1] = Plasma stability of test compounds in human plasma; assay type: in vitro ADME; details: after 2 hours; 1 μM, 37° C.
Description: [table] Test compound and QC compound were incubated at a final concentration of 1 μM in plasma at 37° C. in shaker water bath with gentle shaking. At predetermined time points, reaction was terminated with 200 μL of acetonitrile containing internal standard and centrifuged at 4000×RCF, 4° C. for 20 minutes. Supernatant was separated and analyzed by LC-MS/MS. The following equation was used to determine the percentage remaining of test/QC compound following the procedure above: […]

[2] = mean Ki from multiple experiments, imipenem 300 μM, Cheng-Prusoff from IC50, read-out: Ki NDM-1
[3] = mean Ki from multiple experiments, imipenem 300 μM, Cheng-Prusoff from IC50, read-out: Ki VIM-1
[4] = mean Ki from multiple experiments, imipenem 300 μM, Cheng-Prusoff from IC50, read-out: Ki VIM-2
[5] = mean Ki from multiple experiments, imipenem 300 μM, Cheng-Prusoff from IC50, read-out: Ki IMP-1
[6] = comparative study bands, read-out: Ki NDM-1 (comparative study)
[7] = comparative study bands, read-out: Ki VIM-1 (comparative study)
[8] = comparative study bands, read-out: Ki VIM-2 (comparative study)
[9] = comparative study bands, read-out: Ki IMP-1 (comparative study)

Sequence of NDM-1 (C7C422 29-270, looked up): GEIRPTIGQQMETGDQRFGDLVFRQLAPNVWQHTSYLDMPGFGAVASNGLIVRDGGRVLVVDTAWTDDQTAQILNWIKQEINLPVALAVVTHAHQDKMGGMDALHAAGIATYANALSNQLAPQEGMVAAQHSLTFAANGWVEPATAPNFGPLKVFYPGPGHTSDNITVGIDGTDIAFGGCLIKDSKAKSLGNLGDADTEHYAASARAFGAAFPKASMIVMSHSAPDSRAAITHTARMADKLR
Sequence of IMP-1 (P52699 19-246, looked up, species assumed): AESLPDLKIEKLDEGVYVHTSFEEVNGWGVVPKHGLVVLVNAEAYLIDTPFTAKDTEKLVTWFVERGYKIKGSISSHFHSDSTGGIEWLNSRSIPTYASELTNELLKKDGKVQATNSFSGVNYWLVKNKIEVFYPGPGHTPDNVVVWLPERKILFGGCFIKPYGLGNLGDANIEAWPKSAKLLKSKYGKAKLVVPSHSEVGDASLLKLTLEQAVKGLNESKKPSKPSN

Row | Ki (NDM-1; [2]) | Ki (VIM-1; [3]) | Ki (VIM-2; [4]) | Ki (IMP-1; [5]) | Ki (NDM-1; [6]) | Ki (VIM-1; [7]) | Ki (VIM-2; [8]) | Ki (IMP-1; [9]) | Stability in human plasma, % remaining [1] | SMILES
1 | 50 to 200 nM | 200 to 500 nM | 20 to 50 nM | 1000 to 10000 nM |  |  |  |  |  | O=C(CNC1=NCCN1)Nc1ccc(S(=O)(=O)Nc2scnc2C(=O)O)cc1F [Example 32]
2 | 50 to 200 nM | 200 to 500 nM | 20 to 50 nM | 1000 to 10000 nM |  |  |  |  |  | N=C(N)NCCC(=O)Nc1ccc(S(=O)(=O)Nc2scnc2C(=O)O)cc1F [Example 19, 5-[[3-fluoro-4-(3-guanidinopropanoylamino)phenyl]sulfon-ylamino]thiazole-4-carboxylic acid]
3 | < 50 nM | 200 to 500 nM | 50 to 150 nM | 1000 to 10000 nM |  |  |  |  |  | CNC(=N)CC(=O)Nc1ccc(S(=O)(=O)Nc2scnc2C(=O)O)cc1F [Example 22, 5-[[3-fluoro-4-[[3-imino-3-(methylamino)propanoyl]amino]phenyl]sulfonylamino]thiazole-4-carboxylic acid]
4 | < 50 nM | 200 to 500 nM | 20 to 50 nM | 500 to 1000 nM |  |  |  |  |  | N=C(N)NNCC(=O)Nc1ccc(S(=O)(=O)Nc2scnc2C(=O)O)cc1F [Example 41, 5-[[4-[[2-(2-carbamimidoylhydrazino)acetyl]amino]-3-fluoro-phenyl]sulfonylamino]thiazole-4-carboxylic acid]
5 | < 50 nM | 500 to 1000 nM | 20 to 50 nM | < 500 nM |  |  |  |  |  | N#CNC(=N)NCC(=O)Nc1ccc(S(=O)(=O)Nc2scnc2C(=O)O)cc1F [Example 34, 5-[[4-[[2-[(N-cyanocarbamimidoyl)amino]acetyl]amino]-3-fluoro-phenyl]sulfonylamino]thiazole-4-carboxylic acid]
6 | < 50 nM | < 200 nM | < 20 nM | 500 to 1000 nM |  |  |  |  |  | O=C(CNC1=NCCN1)Nc1cc(F)c(S(=O)(=O)Nc2scnc2C(=O)O)cc1F [Example 10, 5-[[4-[[2-(4,5-dihydro-1H-imidazol-2-ylamino)acetyl]amino]-2,5-difluoro-phenyl]sulfonylamino]thiazole-4-carboxylic acid]
7 | < 50 nM | 200 to 500 nM | 50 to 150 nM | 1000 to 10000 nM |  |  |  |  |  | O=C(CCC1=NCCN1)Nc1ccc(S(=O)(=O)Nc2scnc2C(=O)O)cc1F [Example 36, 5-[[4-[3-(4,5-dihydro-1H-imidazol-2-yl)propanoylamino]-3-fluoro-phenyl]sulfonylamino]thiazole-4-carboxylic acid]
8 | < 50 nM | 200 to 500 nM | 20 to 50 nM | 1000 to 10000 nM |  |  |  |  |  | N=C(N)CC(=O)Nc1ccc(S(=O)(=O)Nc2scnc2C(=O)O)cc1F [Example 4, 5-[[4-[(3-amino-3-imino-propanoyl)amino]-3-fluoro-phenyl]sulfonylamino]thiazole-4-carboxylic acid]

Second part, the compound before the results:

Row | SMILES | Ki (NDM-1; [2]) | Ki (VIM-1; [3]) | Ki (VIM-2; [4]) | Ki (IMP-1; [5]) | Ki (NDM-1; [6]) | Ki (VIM-1; [7]) | Ki (VIM-2; [8]) | Ki (IMP-1; [9]) | Stability in human plasma, % remaining [1]
9 | N=C(N)Nc1ccc(S(=O)(=O)Nc2scnc2C(=O)O)cc1 [Example 44, 5-[(4-guanidinophenyl)sulfonylamino]thiazole-4-carboxylic acid] | 200 to 2000 nM | 200 to 500 nM | 50 to 150 nM | 1000 to 10000 nM |  |  |  |  | 
10 | N=C(N)NCC(=O)Nc1ccc(S(=O)(=O)Nc2scnc2C(=O)O)cc1Cl [Example 17, 5-[[3-chloro-4-[(2-guanidinoacetyl)amino]phenyl]sulfonylamino]thiazole-4-carboxylic acid] | 50 to 200 nM | < 200 nM | < 20 nM | < 500 nM | 30 to 100 nM | < 150 nM | < 20 nM | < 150 nM | 
11 | N=C(N)NCCSC(=O)Nc1ccc(S(=O)(=O)Nc2scnc2C(=O)O)cc1F [Example 31, 5-[[3-fluoro-4-(2-guanidinoethylsulfanyl-carbonylamino)phenyl]sulfonylamino]thiazole-4-carboxylic acid] | < 50 nM | < 200 nM | 20 to 50 nM | < 500 nM |  |  |  |  | 
12 | N=C(N)CNC(=O)Nc1ccc(S(=O)(=O)Nc2scnc2C(=O)O)cc1F [Example 30, 5-[[4-[(2-amino-2-imino-ethyl)carbamoylamino]-3-fluoro-phenyl]sulfonylamino]thiazole-4-carboxylic acid] | < 50 nM | 200 to 500 nM | 20 to 50 nM | 1000 to 10000 nM |  |  |  |  | 
13 | N=C(N)NCc1ccc(S(=O)(=O)Nc2scnc2C(=O)O)cc1F [Example 46, 5-[[3-fluoro-4-(guanidinomethyl)phenyl]sulfonylamino]thiazole-4-carboxylic acid] | 50 to 200 nM | 200 to 500 nM | 50 to 150 nM | 1000 to 10000 nM |  |  |  |  | 
14 | NCC(=O)Nc1ccc(S(=O)(=O)Nc2scnc2C(=O)O)cc1OC(F)(F)F [Comp. G, reference compound] |  |  |  |  | 30 to 100 nM | 300 to 500 nM | 20 to 50 nM | 150 to 600 nM | 
15 | NCC(=O)Nc1ccc(S(=O)(=O)Nc2scnc2C(=O)O)cc1 [Comp. H, reference compound] |  |  |  |  | 100 to 300 nM | 500 to 1000 nM | 20 to 50 nM | 5000 to 10000 nM | 
16 | COc1cc(S(=O)(=O)Nc2scnc2C(=O)O)ccc1NC(=O)CNC(=N)N [Example 16, 5-[[4-[(2-guanidinoacetyl)amino]-3-methoxy-phenyl]sulfonylamino]thiazole-4-carboxylic acid] | 50 to 200 nM | < 200 nM | < 20 nM | 500 to 1000 nM | 30 to 100 nM | < 150 nM | < 20 nM | 150 to 600 nM | 89% remaining after 2 hours
17 | N=C(N)NCC(=O)Nc1ccc(S(=O)(=O)Nc2scnc2C(=O)O)cc1OC(F)(F)F [Example 18, 5-[[4-[(2-guanidinoacetyl)amino]-3-(trifluoromethoxy)phenyl]sulfonylamino] thiazole-4-carboxylic acid] | 50 to 200 nM | < 200 nM | < 20 nM | < 500 nM | 30 to 100 nM | < 150 nM | < 20 nM | < 150 nM | 
18 | N=C(N)NCC(=O)Nc1cc(F)c(S(=O)(=O)Nc2scnc2C(=O)O)cc1F [Example 9, 5-[[2,5-difluoro-4-[(2-guanidinoacetyl)amino]phenyl]sulfonylamino]thiazole-4-carboxylic acid] | 50 to 200 nM | 200 to 500 nM | < 20 nM | 1000 to 10000 nM |  |  |  |  | 
19 | N=C(N)NCC(=O)Nc1ncc(S(=O)(=O)Nc2scnc2C(=O)O)cc1F [Example 3, 5-[[5-fluoro-6-[(2-guanidinoacetyl)amino]-3-pyridyl]sulfonylamino]thiazole-4-carboxylic acid] | 50 to 200 nM | 200 to 500 nM | 20 to 50 nM | 1000 to 10000 nM | 100 to 300 nM | 300 to 500 nM | 20 to 50 nM | 600 to 5000 nM | 
20 | N=C(N)NC(=O)Nc1ccc(S(=O)(=O)Nc2scnc2C(=O)O)cc1F [Example 28, 5-[[4-(carbamimidoylcarbamoyl-amino)-3-fluoro-phenyl]sulfonylamino] thiazole-4-carboxylic acid] | 50 to 200 nM | < 200 nM | < 20 nM | < 500 nM |  |  |  |  | 
21 | N=C(NCCN)NCC(=O)Nc1ccc(S(=O)(=O)Nc2scnc2C(=O)O)cc1F [Example 39, 5-[[4-[[2-[[N-(2-aminoethyl)carbamimidoyl]amino]acetyl]amino]-3-fluoro-phenyl]sulfonylamino]thiazole-4-carboxylic acid] | 200 to 2000 nM | < 200 nM | 20 to 50 nM | 1000 to 10000 nM |  |  |  |  | 
22 | N=C(N)CCC(=O)Nc1ccc(S(=O)(=O)Nc2scnc2C(=O)O)cc1F [Example 35, 5-[[4-[(4-amino-4-imino-butanoyl)amino]-3-fluoro-phenyl]sulfonylamino]thiazole-4-carboxylic acid] | < 50 nM | < 200 nM | 20 to 50 nM | 500 to 1000 nM |  |  |  |  | 
23 | N=C(N)CC(=O)Nc1c(F)cc(S(=O)(=O)Nc2scnc2C(=O)O)cc1F [Example 13, 5-[[4-[(3-amino-3-imino-propanoyl)amino]-3,5-difluoro-phenyl]sulfonylamino]thiazole-4-carboxylic acid] | < 50 nM | < 200 nM | 50 to 150 nM | 500 to 1000 nM |  |  |  |  | 
24 | N=C(N)NCCOC(=O)Nc1ccc(S(=O)(=O)Nc2scnc2C(=O)O)cc1F [Example 27, 5-[[3-fluoro-4-(2-guanidinoethoxycarbonylamino)phenyl]sulfonylamino]thiazole-4-carboxylic acid] | < 50 nM | < 200 nM | < 20 nM | 500 to 1000 nM |  |  |  |  | 
25 | COc1cc(S(=O)(=O)Nc2scnc2C(=O)O)ccc1NC(=O)CN [Comp. E, reference compound] |  |  |  |  | 100 to 300 nM | 300 to 500 nM |  | 600 to 5000 nM | 29% remaining after 2 hours
26 | NCC(=O)Nc1ncc(S(=O)(=O)Nc2scnc2C(=O)O)cc1F [Comp. C, reference compound] |  |  |  |  | 100 to 300 nM | 500 to 1000 nM | 100 to 150 nM | 600 to 5000 nM | 
